Test results as given in US20230277519A1, “IRAK4 DEGRADERS AND USES THEREOF” (Kymera Therapeutics, Inc., priority 2022, published 2023).

What was measured:
IRAK4 [1] = biological target: T1, IRAK4 (Homo sapiens, UniProt Q9NWZ3); assay: IRAK4 degradation in blood by PBMC FLOW (Phase 1a); format: in vivo; settings: patients with R/R B-cell NHL, IV, DL1 and DL2, PBMC FLOW
T1 construct: from tissue; host or cells: tumor tissue of R/R B-cell NHL patients
T1 sequence (Q9NWZ3 1-460): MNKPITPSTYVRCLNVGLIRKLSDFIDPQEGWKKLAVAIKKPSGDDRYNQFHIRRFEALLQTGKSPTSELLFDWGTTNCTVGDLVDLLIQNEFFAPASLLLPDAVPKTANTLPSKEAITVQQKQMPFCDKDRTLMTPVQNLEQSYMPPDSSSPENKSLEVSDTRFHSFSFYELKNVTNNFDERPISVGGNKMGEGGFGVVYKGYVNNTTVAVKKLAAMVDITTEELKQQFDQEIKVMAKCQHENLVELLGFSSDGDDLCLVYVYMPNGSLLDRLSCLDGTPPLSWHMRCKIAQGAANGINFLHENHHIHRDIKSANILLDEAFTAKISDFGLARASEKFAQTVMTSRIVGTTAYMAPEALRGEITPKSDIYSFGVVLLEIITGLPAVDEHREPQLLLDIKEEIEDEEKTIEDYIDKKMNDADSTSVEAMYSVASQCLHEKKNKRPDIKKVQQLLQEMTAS
Procedure: (§1) In some embodiments, the present disclosure provides a method of administering Compound A to a patient in need thereof, comprising administering to said patient a therapeutically effective amount of Compound A or a pharmaceutically acceptable salt thereof (e.g., in a liquid formulation or a unit dose form as described herein), wherein great than 30%, 40%, 50%, 60%, 70%, 80%, or 90% of IRAK4 degradation in blood or tumor is achieved (e.g., by measuring, at 48 hours post-administration, IRAK4 levels using mass spectrometry or lymphocytes and monocytes using flow cytometry).
(§2) Patients who provide informed consent and meet the eligibility criteria for the study will be enrolled and treated with Compound A administered intravenously (IV) on Day 1 of a 21-day schedule (Schedule 1). An alternative schedule of Compound A administered IV on Day 1 and Day 2 of a 21-day schedule (Schedule 2) may also be evaluated based on emerging pharmacokinetic, pharmacodynamic, and safety data observed in Schedule 1. If Schedule 2 is investigated, the first dose level will represent a split dose of the highest dose previously determined to be tolerable in Schedule 1 with the total dose administered in Schedule 2 being equivalent to the total dose administered in Schedule 1. Subsequent dose levels for Schedule 2 will follow the same dose escalation scheme as described for Schedule 1. […]

Ikaros [2] = biological target: T2, Ikaros (Homo sapiens, UniProt Q13422); assay: Ikaros degradation in blood by PBMC FLOW (Phase 1a); format: in vivo; settings: patients with R/R B-cell NHL, IV, DL1 and DL2, PBMC FLOW
T2 construct: from tissue; host or cells: tumor tissue of R/R B-cell NHL patients
Procedure: as §1, with “greater” for “great”, “than” for “than 30%,”, “Ikaros” for “IRAK4”
as §2

Aiolos [3] = biological target: T3, Aiolos (Homo sapiens, UniProt Q9UKT9); assay: Aiolos degradation in blood by PBMC FLOW (Phase 1a); format: in vivo; settings: patients with R/R B-cell NHL, IV, DL1 and DL2, PBMC FLOW
T3 construct: from tissue; host or cells: tumor tissue of R/R B-cell NHL patients
Procedure: as §1, with “greater” for “great”, “than” for “than 30%, 40%, 50%,”, “Aiolos” for “IRAK4”
as §2

IRAK4 [4] = biological target: T1, IRAK4; assay: IRAK4 degradation in tumor by targeted MS (Phase 1a); format: in vivo; settings: patients, IV, DL1, targeted MS
Procedure: as §1, §2

Ikaros [5] = biological target: T2, Ikaros; assay: Ikaros degradation in tumor by targeted MS (Phase 1a); format: in vivo; settings: patients, IV, DL1, targeted MS
Procedure: as §1, with “greater” for “great”, “than” for “than 30%,”, “Ikaros” for “IRAK4”
as §2

Aiolos [6] = biological target: T3, Aiolos; assay: Aiolos degradation in tumor by targeted MS (Phase 1a); format: in vivo; settings: patients, IV, DL1, targeted MS
Procedure: as §1, with “greater” for “great”, “than” for “than 30%, 40%, 50%,”, “Aiolos” for “IRAK4”
as §2

[7] = Plasma concentration and PK in patients (Phase 1a); format: in vivo, human; settings: IV, DL1 and DL2, plasma
Text: (§3) Patients who provide informed consent and meet the eligibility criteria for the study will be enrolled and treated with Compound A administered intravenously (IV) on Day 1 of a 21-day schedule (Schedule 1). An alternative schedule of Compound A administered IV on Day 1 and Day 2 of a 21-day schedule (Schedule 2) may also be evaluated based on emerging pharmacokinetic, pharmacodynamic, and safety data observed in Schedule 1. If Schedule 2 is investigated, the first dose level will represent a split dose of the highest dose previously determined to be tolerable in Schedule 1 with the total dose administered in Schedule 2 being equivalent to the total dose administered in Schedule 1. Subsequent dose levels for Schedule 2 will follow the same dose escalation scheme as described for Schedule 1. If the sponsor and investigators determine that, based on the observed safety, PK, preliminary efficacy, and/or the PD profile, Schedule 2 may not be beneficial to patients, then the study will proceed immediately to Phase 1b after the Schedule 1 MTD/RP2D is determined and Schedule 2 may not be evaluated. • Schedule 1: Dose D1 on a 21-day schedule • Schedule 2: Dose D1, D2 on a 21-day schedule

[8] = test system: IRAK4, Ikaros, and Aiolos; assay: Duration of target degradation in patients (Phase 1a); format: in vivo, human; settings: once every three-week dosing
Text: as §3

T2 sequence (Q13422 whole entry): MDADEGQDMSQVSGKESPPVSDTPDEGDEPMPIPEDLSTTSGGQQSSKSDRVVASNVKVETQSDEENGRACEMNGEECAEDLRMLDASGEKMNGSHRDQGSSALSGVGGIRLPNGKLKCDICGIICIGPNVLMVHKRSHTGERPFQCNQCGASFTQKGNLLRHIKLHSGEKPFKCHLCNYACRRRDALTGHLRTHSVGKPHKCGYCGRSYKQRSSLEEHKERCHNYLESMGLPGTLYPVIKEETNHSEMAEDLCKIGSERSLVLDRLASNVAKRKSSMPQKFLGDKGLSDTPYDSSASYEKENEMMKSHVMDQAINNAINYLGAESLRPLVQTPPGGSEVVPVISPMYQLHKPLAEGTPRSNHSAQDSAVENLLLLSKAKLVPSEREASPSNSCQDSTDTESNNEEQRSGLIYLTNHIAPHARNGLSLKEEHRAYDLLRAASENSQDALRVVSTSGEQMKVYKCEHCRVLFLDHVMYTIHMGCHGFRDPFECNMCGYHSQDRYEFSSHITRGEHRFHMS
T3 sequence (Q9UKT9 whole entry): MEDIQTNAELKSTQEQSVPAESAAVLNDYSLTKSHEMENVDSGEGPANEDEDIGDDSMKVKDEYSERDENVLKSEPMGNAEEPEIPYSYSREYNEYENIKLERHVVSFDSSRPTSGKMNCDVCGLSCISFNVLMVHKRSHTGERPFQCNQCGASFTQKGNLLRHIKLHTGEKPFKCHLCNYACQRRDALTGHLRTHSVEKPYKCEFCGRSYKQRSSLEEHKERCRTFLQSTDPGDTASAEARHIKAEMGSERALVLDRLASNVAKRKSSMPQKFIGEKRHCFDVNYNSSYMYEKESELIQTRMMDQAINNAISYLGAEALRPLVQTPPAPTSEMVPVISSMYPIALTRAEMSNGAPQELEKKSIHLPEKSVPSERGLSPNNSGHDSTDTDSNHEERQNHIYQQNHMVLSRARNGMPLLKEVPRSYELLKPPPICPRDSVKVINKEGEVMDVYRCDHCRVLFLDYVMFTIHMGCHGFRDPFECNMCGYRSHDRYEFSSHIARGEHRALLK

In the case of `CC(C)(O)c1cc2nc([C@H]3CC[C@H](CN4CC5(CC(CCNc6cccc7c6C(=O)N(C6CCC(=O)NC6=O)C7=O)C5)C4)CC3)sc2cc1NC(=O)c1cccc(C(F)(F)F)n1` (some centres unmarked) [Compound A], the “IRAK4 degradation in PBMC” value (IRAK4 [1]) is reported as “Up to 40%”, the “KD of Ikaros in PBMC” value (Ikaros [2]) is reported as ≤ 95% and the “KD of Aiolos in PBMC” value (Aiolos [3]) is reported as ≤ 95%. The “IRAK4 KD in tumor” value (IRAK4 [4]) was 27%, the “Ikaros KD in tumor” value (Ikaros [5]) was 40-66% and the “Aiolos KD in tumor” value (Aiolos [6]) was 40-66%. For the same compound, the “Exposure (plasma concentration and PK)” value [7] was “dose-proportional increase in exposure” and the “Duration of target degradation” value [8] was “At least 72 h”.
